{
  "source": "patent US9265735B2",
  "about": "“Methods for screening to identify therapeutic agents for Alzheimer's disease and use thereof” (New York University, priority 2010, dated 2016)",
  "key": {"[1]": {"tested_on": "autophagic vacuoles (AVs)", "test": "AV accumulation by EM morphometry in PS1KO cells", "assay_type": "cell-based, Murine", "details": "200 μM, 6 h", "protocol": "Following treatments, cells were prepared for EM as previously described and AVs, identified using previous morphological criteria (Yu et al., 2005), were classified and counted on electron micrographs (7900× print magnification) of 20 EM images from different lines in each experimental group."}, "PS1KO blastocysts": {"tested_on": "PS1KO blastocysts", "test": "Lysosomal pH measurement with Dextran conjugated Lysosensor Yellow/Blue in PS1KO cells", "assay_type": "cell-based, Murine", "details": "PS1KO cells", "protocol": "For results presented in Example 1, quantification of lysosomal pH was determined using Dextran conjugated Lysosensor Yellow/Blue DND-160 (Invitrogen) as follows. Wild Type and PS1KO blastocysts were grown in High Glucose DMEM+15% FBS with antibiotics to ˜90% confluency. Cells were then trypsinized, harvested (1×10^6 cells/ml) and loaded with 1 mg/ml of Lysosensor-dextran for 1 hour at 37° C. with 5% CO2. The cells were then washed 3× in HBSS and aliquoted at […] into a black 96-well microplate. pH calibration was performed according to the protocol established by Diwu et al (Diwu et al., (1999). Chem Biol 6, 411-418). Briefly, wild type and PS1KO blastocysts were treated with 10 μM monensin and 10 uM nigericin in MES buffer (5 mM NaCl, 115 mM KCL, 1.3 mM MgSO4, 25 mM MES), with the pH adjusted to a range from 3.5-7.0. The samples were read in a Wallac Victor 2 fluorimeter (Perkin Elmer) with excitation at 355 nm. The ratio of emission 440/535 nm was then calculated for each sample. The pH values were determined from the linear standard curve generated via the pH calibration samples.\nIn a more particular embodiment, quantification of lysosomal pH is determined using Dextran conjugated Lysosensor Yellow/Blue (Invitrogen) as follows. 3000 Wild Type and PS1KO blastocysts were seeded in multiple wells of black, clear bottom tissue culture treated 96 well dish and grown in High Glucose DMEM+15% FBS with antibiotics to ˜90% confluency (˜24 hours). 2 ul of 0.5 mg/ml lysosensor-dextran (1:100 dilution of a 5 mg/ml stock) was added and incubated for 1 hour at 37° C. with 5% CO2. The cells were then washed 3× in HBSS. See also methods and results set forth herein below in Example 2. This modified protocol represents an optimized protocol for the purposes set forth herein.\nQuantification of lysosomal pH was determined using Dextran conjugated Lysosensor Yellow/Blue (Invitrogen). 3000 Wild Type and PS1KO blastocysts were seeded in multiple wells of black, clear bottom tissue culture treated 96 well dish and grown in High Glucose DMEM+15% FBS with antibiotics to ˜90% confluency (˜24 hours). 2 ul of 0.5 mg/ml lysosensor-dextran (1:100 dilution of a 5 mg/ml stock) was added and incubated for 1 hour at 37° C. with 5% CO2. The cells were then washed 3× in HBSS.\nPerformed according to the protocol established by Diwu et al (supra). Briefly, wild type and PS1KO blastocysts were treated with 10 uM monensin and 10 uM nigericin in MES buffer (5 mM NaCl, 115 mM KCL, 1.3 mM MgSO4, 25 mM MES), with the pH adjusted to a range from 3.5-7.0 for 7-10 min prior to lysosensor addition (the additional hour in the buffer seems to have no effect), these cells are not washed in HBSS since permeabilization with ionophores makes them susceptible to detachment.\nThe samples were read in a Wallac Victor 2 fluorimeter (Perkin Elmer) with excitation at 355 nm. The ratio of emission 440 nm/535 nm was then calculated for each sample. pH values were determined from the linear std curve generated via the pH calibration samples."}, "tau": {"tested_on": "tau", "details": "rats; bilateral injection into the hippocampus; cited from earlier work"}, "[2]": {"details": "in vivo; cited from earlier work"}, "LC3 puncta": {"tested_on": "LC3 puncta", "test": "LC3 puncta by LC3 immunocytochemistry in PS1KO cells", "assay_type": "cell-based, Murine", "details": "200 μM, 6 h", "protocol": "(§1) Immunocytochemistry was performed as previously described (Yu et al., 2005). Secondary antibodies used were from Invitrogen: goat anti-mouse/rabbit/rat Alexa Fluor 488 and goat anti-mouse/rabbit/rat Alexa Fluor 568. Cells were imaged using a plan-Apochromat 40× or 100×/1.4 oil DIC objective lens on the laser scanning confocal microscope, LSM 510 META, with LSM software v3.5 (Carl Zeiss MicroImaging Inc). Images were analysed using ImageJ program (NIH). Organelles with low internal pH were labeled by LysoTracker DND-99 dye (Invitrogen) at the final 100 nM for 30 min. Following 4% PFA fixation, cells were further counter stained with Cat D, LMAP1, or LC3 antibody for 4 hrs then visualized with Alexa Fluor 488 conjugated secondary antibody. Active Cat D was labeled by adding Bodipy-FL-pepstatin A directly to the medium at a final concentration of 1 μg/ml for 1 hr. Following 4% PFA fixation, cells were counter stained with Cat D antibody for 4 hrs and visualized with Alexa Fluor 568 conjugated secondary antibody. […] Cells were incubated for 30 min with MR-Cathepsin B prior to mounting them under the confocal microscope. To block v-ATPase proton pump activity, ammonium chloride (NH4Cl) was added directly to the medium at a final concentration of 20 mM for 6 hrs prior to LysoTracker addition."}, "p62": {"tested_on": "p62", "test": "p62 accumulation in PS1KO cells", "assay_type": "cell-based, Murine", "details": "200 μM, 6 h", "protocol": "Immunoblotting was performed as previously described (Yu et al., 2005). Briefly, cells used for Western blot analysis were lysed in buffer containing 50 mM Tris (pH=7.4), 150 mM NaCl, 1 mM EDTA, 1 mM EGTA, 1% Triton X-100 and 0.5% Tween-20 with protease and phosphatase inhibitors. Following electrophoresis on 4-20% gradient gel (Invitrogen), proteins were transferred onto 0.45 μm PVDF membranes (Millipore) and the membrane was incubated overnight in primary antibody then incubated with HRP conjugated secondary antibody. The blot was developed by ECL-kit (GE Healthcare). To assess v-ATPase V0a subunit glycosylation, lysate from WT and PS1KO cells were either treated for 24 hrs at 37° C. with PNGase F or O-glycanase using an enzymatic deglycosylation kit according to the manufacturer's instructions (PROzyme) or with Endo H (New England Biolabs) for 24 hrs at 37° C. Total glycoproteins were isolated using Glycoprotein Isolation Kit, ConA according to the manufacturer's instructions (Thermo Scientific)."}, "Cat B": {"tested_on": "Cat B", "test": "Cat B activity by MagicRed-Cathepsin B (MR-Cat B) in PS1KO cells", "assay_type": "cell-based, Murine", "details": "PS1KO cells; 200 μM, 6 h", "protocol": "as §1, with “To block v-ATPase proton pump activity, ammonium chloride (NH4Cl) was added directly to the medium at a final concentration of 20 mM for 6 hrs prior to LysoTracker addition.” left out\nActive Cat D was labeled by adding Bodipy-FL-pepstatin A directly to the medium at a final concentration of 1 mg/ml for 1 hr. […] Cat B staining with MagicRed-Cathepsin B was also measured fluorometrically with a Wallac Victor 2 fluorometer."}},
  "note": "“Also recorded” adds a separate entry of the source.",
  "data": [
    {"compound": "CC(C)NCC(O)c1ccc(O)c(O)c1", "note": "(centres unmarked) [isoproterenol]", "values": [
      {"measurement": "AV accumulation by EM morphometry (total area occupied by AVs per EM field)", "setting": "[1]", "result": "reversed"},
      {"measurement": "lysosomal pH", "setting": "PS1KO blastocysts; 200 μM, 6 h", "result": "restored to WT levels"},
      {"measurement": "effect on elevated lysosomal pH in PS1KO cells", "setting": "PS1KO blastocysts; FIG. 10A/G", "result": "normal levels or even hyperacidic levels; also recorded: restored to WT levels"},
      {"measurement": "tau phosphorylation and spatial memory", "setting": "tau", "result": "induces Alzheimer-like hyperphosphorylation of tau and spatial memory defects"},
      {"measurement": "crossing of the blood brain barrier (BBB)", "setting": "[2]", "result": "cross the blood brain barrier"},
      {"measurement": "LC3 puncta accumulation determined by LC3 ICC", "setting": "LC3 puncta", "result": "reversed"},
      {"measurement": "p62 accumulation", "setting": "p62", "result": "reversed"},
      {"measurement": "Cat B activity as measured by MR-Cat B", "setting": "Cat B", "result": "restored to WT levels"}
    ]}
  ]
}
